Measured values as given in article PMC10709440, “High-throughput ligand profile characterization in novel cell lines expressing seven heterologous insect olfactory receptors for the detection of volatile plant biomarkers” (Scientific Reports, 2023).

Experiments:
Drosophila OR85b = target: T1, Drosophila OR85b (Drosophila melanogaster, UniProt Q9VHQ7); experiment: cell-based; design: GCaMP6 calcium fluorescence in stable HEK293 OR+ORCO lines; peak dF normalised to 50 uM VUAA1 (=1); conditions: HEK293; relative to 50 uM VUAA1 response; below 0.05 set to 0; read-out: % activation
T1 construct: expressed in transfected cells
T1 sequence (Q9VHQ7 1-390): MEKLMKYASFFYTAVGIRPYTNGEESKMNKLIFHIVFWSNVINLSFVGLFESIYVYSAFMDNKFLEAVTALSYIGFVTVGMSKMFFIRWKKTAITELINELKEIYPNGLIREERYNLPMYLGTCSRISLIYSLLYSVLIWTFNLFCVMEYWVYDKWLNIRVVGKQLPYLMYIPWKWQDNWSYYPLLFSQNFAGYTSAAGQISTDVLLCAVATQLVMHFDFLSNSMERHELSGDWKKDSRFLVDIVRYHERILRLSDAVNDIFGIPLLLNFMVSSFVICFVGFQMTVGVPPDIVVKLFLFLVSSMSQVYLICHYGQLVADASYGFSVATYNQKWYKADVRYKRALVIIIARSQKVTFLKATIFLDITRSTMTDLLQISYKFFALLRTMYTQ
T1 sequence (Q9VNB5 1-486 partner): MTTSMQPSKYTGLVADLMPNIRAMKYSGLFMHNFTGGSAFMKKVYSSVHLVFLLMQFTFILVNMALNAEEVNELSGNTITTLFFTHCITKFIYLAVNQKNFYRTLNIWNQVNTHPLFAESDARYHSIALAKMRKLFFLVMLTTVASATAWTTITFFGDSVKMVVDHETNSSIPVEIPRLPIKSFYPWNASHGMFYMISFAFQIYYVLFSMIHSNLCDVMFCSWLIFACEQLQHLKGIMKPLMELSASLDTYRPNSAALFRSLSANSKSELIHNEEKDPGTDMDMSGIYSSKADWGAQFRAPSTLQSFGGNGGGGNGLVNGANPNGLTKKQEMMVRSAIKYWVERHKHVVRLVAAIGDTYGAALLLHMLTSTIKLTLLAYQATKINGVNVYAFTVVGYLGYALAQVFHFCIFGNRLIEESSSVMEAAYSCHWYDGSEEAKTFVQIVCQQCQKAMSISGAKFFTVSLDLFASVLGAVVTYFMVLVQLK
Method: (§1) Twelve thousand to 18,000 cells were plated into each well of a black wall, transparent bottom 384-well microplate (Greiner) 48 h or 72 h before the measurements and were simultaneously treated with 1 μg/mL doxycycline. Typically, three columns were filled with one OR expressing cell line, each row was treated with the same compound (three technical replicates for each OR), and each responsive VOC-OR combination was measured at least three times on different days. The plate has 24 columns, thus we could record responses in up to eight different cell lines in each plate. On the day of the experiment, the growth medium was replaced with 20 µL assay buffer/well (140 mM NaCl, 5 mM KCl, 2 mM CaCl2, 1 mM MgCl2, 5 mM HEPES-Na, 20 mM glucose, pH 7.3, 340 mOsm). […] Baseline fluorescence (F0) was recorded for 5 s, after which 7 µL VOC buffer (140 mM NaCl, 5 mM KCl, 2 mM CaCl2, 1 mM MgCl2, 5 mM HEPES-Na, 31 mM glucose, 0.1% DMSO, pH 7.3, 340 mOsm) was injected into each well in one row and the fluorescence response was recorded for an additional 30 s, at a rate of one read/sec. VOC solutions (VOC buffer with 4× concentration of the final measured VOC concentration, 9 µL/well was injected) were measured on the same wells in a second round with the same protocol. Each individual concentration of a specific VOC sample was recorded in three wells for the same cell line on the same microplate. The raw data were exported in xls file format, F0 and FMAX values, and the fluorescence intensity changes (∆F) were calculated in Excel (Microsoft) (Supplementary file Data summary.xlsx) using the following equation: ΔF=FMAX-F0/F0 (see also Fig. 1C). On each plate, we recorded the response of each cell line to 50 µM VUAA1. The average of these ∆F values of each cell line were used to calculate the VUAA1-normalized values for the rest of the plate, by dividing VOC response ∆F values by the average VUAA1 response ∆F value of the corresponding OR cell line. Each VOC-OR combination was measured three times as tec The recorded FMAX, F0, ∆F, VUAA1-normalized ∆F values, as well as the OR name, the name of the tested sample, and the final concentration for each well were copied into supplementary file Data summary.xlsx, that was used to summarize all the plates recorded. Here, the averages of the measurements were calculated for each receptor-VOC-concentration combination. […] Each VOC was measured at 1, 10, and 100 µM final concentration on each receptor. VUAA1-normalized response was calculated as described in methods. Values are averages of at least three biological replicates for responsive combinations and two for the non-responsive combinations. The chemical structures of the strong and medium ligands are shown for each cell line. Heat map: white-green colors correspond to the lowest-highest values measured for each cell line.

Drosophila OR98a = target: T2, Drosophila OR98a (Drosophila melanogaster, UniProt Q9VAZ3); experiment: cell-based; design: GCaMP6 calcium fluorescence in stable HEK293 OR+ORCO lines; peak dF normalised to 50 uM VUAA1 (=1); conditions: HEK293; relative to 50 uM VUAA1 response; below 0.05 set to 0; read-out: % activation
T2 construct: expressed in transfected cells
T2 sequence (Q9VAZ3 1-397): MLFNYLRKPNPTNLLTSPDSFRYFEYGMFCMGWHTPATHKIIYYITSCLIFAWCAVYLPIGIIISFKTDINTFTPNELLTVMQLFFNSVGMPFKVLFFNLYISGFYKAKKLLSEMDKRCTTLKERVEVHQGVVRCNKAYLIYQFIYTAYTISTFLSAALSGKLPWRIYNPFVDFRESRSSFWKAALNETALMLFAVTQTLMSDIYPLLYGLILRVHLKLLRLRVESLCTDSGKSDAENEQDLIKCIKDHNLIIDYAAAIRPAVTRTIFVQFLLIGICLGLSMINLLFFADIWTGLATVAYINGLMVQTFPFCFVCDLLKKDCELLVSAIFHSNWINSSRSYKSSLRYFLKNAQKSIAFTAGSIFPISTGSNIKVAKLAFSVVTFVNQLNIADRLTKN
T2 sequence (Q9VNB5 1-486 partner): T1 sequence (Q9VNB5 1-486 partner)
Method: as §1

CC/C=C/CCO [e3-hexenol]
0%: activity at 1 µM (Drosophila OR85b) | activity at 10 µM (Drosophila OR85b) | activity at 100 µM (Drosophila OR85b) | activity at 1 µM (Drosophila OR98a) | activity at 10 µM (Drosophila OR98a) | activity at 100 µM (Drosophila OR98a)
